{"source": "patent US6602274B1", "about": "“Targeted transcutaneous cancer therapy” (Light Sciences Corporation, priority 1999, dated 2003)", "key": {"virus-infected T cells": {"test_system": "virus-infected T cells", "conditions": "virus-infected T cells treated with BPD, exposed to light; Blood Cells 18:129-40 (1992); cited from earlier work"}, "[1]": {"test_system": "colon carcinoma tumor mass", "assay": "Photodynamic therapy of a solid tumor with implanted LED light source probes after oral ALA", "type": "in vivo, human", "excerpt": "A patient in the terminal phase of recurrent malignant colon cancer presented with a protruding colon carcinoma tumor mass of approximately 500 grams and approximately 13 cm in diameter, which extended through the patient's dermis. Due to the advanced state of the patient's disease and due to the highly vascularized nature of this tumor mass, resection was not feasible. Further, this large tumor mass presented a significant amount of pain and discomfort to the patient, as well as greatly impairing the patient's ability to lie flat.\nSix separate light source probes, each including a linear array of LEDs, were surgically implanted in this large human tumor using standard surgical procedures. An intensity of about 25-30 mW of light from each light source probe (650 nm peak wavelength) was delivered to the tumor for 40 hours following oral administration to the patient of a single dose of an (ALA) photosensitizer agent (60 mg/kg). However, after 18 hours, two of the light source probes became unseated from the tumor mass and were disconnected from the electrical power supply used to energize the LEDs on each probe. The total fluence delivered to the tumor bed during this single extended duration treatment was in excess of 20,000 Joules. […] The extent of this PDT induced necrotic effect in a large volume of tumor tissue was totally unexpected and has not been described before in any PDT studies in subjects in vivo or clinically. Over the course of four weeks following PDT, the necrotic tumor tissue was debrided from the patient resulting in a reduction of approximately 500 grams of tumor tissue.\nThe fluence rate employed in this Example represented about 150-180 mW/cm^2, with a total fluence more than 20,000 Joules. The preferable fluence rate contemplated more broadly by the present invention is between about 5 mW/cm^2 and about 100 mW/cm^2, more preferably, between about 10 mW/cm^2 and about 75 mW/cm^2, and most preferably, between about 15 mW/cm^2 and about 50 mW/cm^2."}, "[2]": {"conditions": "systemic administration, clinical use; cited from earlier work"}}}
{"compound": "benzoporphyrin derivatives [BPD]", "values": [{"measurement": "effect on T cell membrane after exposure to light", "setting": "virus-infected T cells", "value": "holes developed in the T cell membrane and increased in size until the membrane completely decomposed"}]}
{"compound": "NCC(=O)CCC(=O)O", "note": "[ALA, aminolevulinic acid]", "values": [{"measurement": "Extensive tumor necrosis, radius around each of the light source probes", "setting": "[1]; one patient, single oral dose 60 mg/kg, 650 nm light, 40 hours of PDT, total fluence in excess of 20,000 Joules", "value": "up to 5 cm"}, {"measurement": "collateral damage to surrounding normal tissue", "setting": "[1]; one patient, single oral dose 60 mg/kg, after 40 hours of PDT", "value": "no collateral damage"}, {"measurement": "reduction of tumor tissue (necrotic tumor tissue debrided)", "setting": "[1]; over the course of four weeks following PDT, tumor mass of approximately 500 grams", "value": "approximately 500 grams"}]}
{"compound": "CCOC(=O)C1=Cc2c3nc(cc4nc(cc5[n-]c(cc6[n-]c2c(C)c6CC)c(C)c5CC)C(C)=C4CC)[C@@H](C)[C@]13CC.[Cl-].[Cl-].[Sn]", "note": "(racemic) [PURLYTIN]", "values": [{"measurement": "duration of general dermal photosensitivity / sensitization of the skin to light", "setting": "[2]", "value": "at least several weeks"}]}
{"compound": "Oc1cccc(-c2c3nc(c(-c4cccc(O)c4)c4ccc([nH]4)c(-c4cccc(O)c4)c4nc(c(-c5cccc(O)c5)c5ccc2[nH]5)CC4)C=C3)c1", "note": "[FOSCAN]", "values": [{"measurement": "duration of general dermal photosensitivity / sensitization of the skin to light", "setting": "[2]", "value": "at least several weeks"}]}
{"compound": "sodium porfimer [PHOTOPHRIN]", "values": [{"measurement": "duration of general dermal photosensitivity / sensitization of the skin to light", "setting": "[2]", "value": "up to six weeks"}]}
